# From patent US11602147B2, “Nematode control” (University of Idaho, priority 2017, dated 2023)
# Assays:
# [1] = pH stability of 4-hydroxybenzyl isothiocyanate in buffered aqueous solutions; format: physicochemical
# Protocol: Partially purified 4-hydroxybenzyl isothiocyanate was prepared by suspending 500 grams of S. alba seed meal in 2 liters of deionized water and extracting the mixture with 500 milliliters of ethyl acetate for 24 hours. The ethyl acetate extract was separated by decanting the top organic layer after centrifugation, dried with 100 g of anhydrous sodium sulfate overnight, and concentrated under vacuum at laboratory temperature. The crude 4-hydroxybenzyl isothiocyanate extract was further purified by preparative column chromatography on silica gel (500 grams). […] Content of 4-hydroxybenzyl isothiocyanate within the fractions was verified by GC-MS using instrumentation and conditions as described previously. Fractions containing 4-hydroxybenzyl isothiocyanate were combined and concentrated under vacuum at laboratory temperature producing a yellowish, viscous fluid displaying only 4-hydroxybenzyl isothiocyanate and pentane/methylene chloride solvent peaks in the GC chromatogram. No further concentration of 4-hydroxybenzyl isothiocyanate was achieved using vacuum distillation because of its instability.
# Actual pH values of the buffers of 3.03, 3.52, 4.02, 4.49, 5.00, 5.46, 5.91, and 6.52 were verified using an Orion model 420A pH meter (Orion Research, Boston). […]
# Globodera pallida eggs = assay: Globodera pallida egg hatching assay after 2-week exposure of encysted eggs; format: in vivo
# Protocol: An initial experiment was conducted to determine possible effects of S. alba seed meal on hatch of Globodera pallida eggs. Measuring the percentage egg hatch is a viability indicator and provides an indication of the potential impact from a treatment. In this experiment, Globodera pallida encysted eggs were exposed to S. alba seed meal for 2 weeks in small containers containing a sand:soil mix. The sand:soil mix without seed meal was used as the non-treated control. […] The experiment had two treatments: 1) a non-treated bare soil control; or 2) S. alba seed meal. Each treatment included 5 replicates. Eggs from each of these treatments were exposed to either PRD or SE for 2 weeks, at which time hatched infectious 2nd stage Globodera pallida juveniles (J2) were counted. The objective of this experiment was to determine if 4-hydroxybenzyl alcohol (HBA), the product of enzymatic hydrolysis of the glucosinolate sinalbin contained in S. alba seed meal, could be responsible for the observed enhanced hatch. In an experiment similar to Example 1, encysted eggs were exposed to either HBA, or S. alba seed (yellow mustard) meal. The non-treated eggs were placed in bare soil mix only. After 2 weeks, exposed eggs were placed in hatching assays in either PRD or in soil extract, and hatched J2 were counted. In this experiment, the impact of different application rates of HBA on percent Globodera pallida hatch was investigated (FIG. 13). Again, hatch of the non-treated control was higher in PRD than in soil extract. […] An increase in hatch of approximately 60% occurred with a 1 μmol/ml pre-treatment with HBA prior to PRD exposure.
# cotton = details: solutions sprayed directly on vegetative growth; cited from earlier work
# wheat = details: effect no longer observed at 69 days post application; cited from earlier work
# vegetative cover / weeds = details: cited from earlier work
smiles,measurement,setting,value
Oc1ccc(CN=C=S)cc1 [4-hydroxybenzyl isothiocyanate],half-life at 0.1 % v/v (partially purified extract in buffer),"[1]; 0.1 M sodium citrate/citric acid buffer (aqueous), pH 7.0 (overview text)",< 5 min
same,stability in aqueous media,[1]; aqueous media,unstable
"OCc1ccc(O)cc1 [HBA, 4-hydroxybenzyl alcohol]",increase in hatch,Globodera pallida eggs; 1 μmol/ml pre-treatment with HBA prior to PRD exposure,approximately 60%
same,"hatch enhancement, comparison of application rates","Globodera pallida eggs; 1 μmol/ml versus 2, 4, 8 μmol/ml",enhanced hatch of Globodera pallida more effectively than higher rates tested
same,increase in Globodera pallida egg hatch compared to non-treated control,"Globodera pallida eggs; 2-week exposure in soil mix, then hatched in potato root diffusate (PRD)",50%
"N#CS [SCN^−, ionic thiocyanate]",rate at which cotton defoliation was possible,cotton,8.6 kilograms SCN^−/ha
same,application rate causing inhibition of wheat germination,wheat,342 kilograms SCN^−/ha
same,rate necessary for complete plant kill,vegetative cover / weeds; for 4 months,"1,366 kg SCN^−/ha"
same,rate removing a large percentage of the weeds,vegetative cover / weeds; in vivo,137 kilograms SCN^−/ha
